According to patent US9720000B2, “Targeted identification of immunogenic peptides” (The Henry M. Jackson Foundation for the Advancement of …, priority 2005, dated 2017):

Experiments:
Assay type in all cases: cell-based
HLA-A2 = molecular target: T1, HLA-A2 (Homo sapiens, UniProt P04439, D140Y/D185E/D98H/E176V/E277Q/G131W/G231S/I119V/I121R/I166T/I218V/L300P/L318F/N151K/N90K/P208A/P217A/Q86G/Q94H/R138H/R169H/T345S); experiment: T2 HLA-stabilization (peptide-binding) assay by flow cytometry; conditions: peptide incubated with T2 cells (25 μg per FIG. 5)
T1 construct: endogenous in cells; host or cells: T2 cells
Method: FIG. 5 depicts a T2 Peptide-binding assay, in which 25 μg of peptide were incubated with T2 cells, levels of HLA-A2 levels were measured by flow cytometry and are indicated as Mean Fluorescence Intensity units.
(§1) T2 HLA-stabilization assays were performed to confirm HLA-A2 binding activity of Her577 by flow cytometry. PBMC from 9 healthy donors were stimulated with Her577 and tested in ^51Cr-release cytotoxicity (CTX) assays against 3 HER2/neu-expressing tumor cell lines.

LNCaP tumor cells = experiment: 51Cr-release cytotoxicity (CTX) assay with peptide-stimulated CTL against LNCaP; conditions: for average specific CTX (% lysis) against LNCaP: peptide-stimulated CTL from healthy donor PBMC, LNCaP (HLA-A2+), n = 2
Method: as §1

SKOV-3 tumor cells = experiment: 51Cr-release cytotoxicity (CTX) assay with peptide-stimulated CTL against SKOV-3; conditions: for average specific CTX (% lysis) against SKOV-3: peptide-stimulated CTL from healthy donor PBMC, SKOV-3 (HLA-A3+), n = 2
Method: as §1

MCF-7 tumor cells = experiment: 51Cr-release cytotoxicity (CTX) assay with peptide-stimulated CTL against MCF-7; conditions: for average specific CTX (% lysis) against MCF-7: peptide-stimulated CTL from healthy donor PBMC, MCF-7 (HLA-A2+), n = 5
Method: as §1

[1] = Her577-stimulated CTL, targets pre-treated with Tz at 50 μg/ml for 24 h, P=0.19

mean fluorescence intensity (HLA-A2 level on T2 cells) (HLA-A2)	Substance	average specific CTX (% lysis) against LNCaP (LNCaP tumor cells)	average specific CTX (% lysis) against SKOV-3 (SKOV-3 tumor cells)	average specific CTX (% lysis) against MCF-7 (MCF-7 tumor cells)	increase in specific CTX versus untreated LNCaP (LNCaP tumor cells; [1])	increase in specific CTX versus untreated SKOV-3 (SKOV-3 tumor cells; [1])	increase in specific CTX versus untreated MCF-7 (MCF-7 tumor cells; [1])
682	GP2: immunogenic peptide from HER2/neu (IISAVVGIL) [reference compound]	26 ± 9 % lysis	46 ± 5 % lysis	48 ± 1 % lysis			
1275	Her577: peptide Her577 (aa; 577-585) within the Ab-binding site of trastuzumab on HER2/neu (FGPEADQCV)	30 ± 3 % lysis	49 ± 28 % lysis	45 ± 3 % lysis	83%	47%	16%
